Measurements published in patent publication US20110245242A1, “Heterocyclically Substituted Anilinopyrimides” (Bayer CropScience AG, priority 2008, published 2011).
Where two headings read alike, the source gives them in different places. Marks after values point to notes of the source that are not given here.

How the values were obtained:
[1] = log P by HPLC on reversed-phase columns (C 18), method [a], acidic range pH 2.3; assay type: physicochemical
Description: The log P values were measured in accordance with EEC Directive 79/831 Annex V.A8 by HPLC (High Performance Liquid Chromatography) on reversed-phase columns (C 18) using the methods below: [a] The determination was carried out in the acidic range at pH 2.3 using the mobile phases 0.1% aqueous phosphoric acid and acetronitrile linear gradient from 10% acetonitrile to 95% acetronitrile.

Fusarium proliferatum = experiment: Production of Fumonisin FB1 by Fusarium proliferatum (microtitre plates; FB1 by HPLC-MS/MS, growth by OD620); assay type: cell-based; settings: for IC50: Fusarium proliferatum, 144 h
Sphaerotheca fuliginea = experiment: Sphaerotheca test (cucumber)/protective; assay type: in vivo; settings: Podosphaera fuliginea, 168 h, active compound concentration of 500 ppm, protective, evaluation 7 days after the inoculation, read-out: efficacy
[2] = log P by LC-MS, method [b], acid range pH 2.7; assay type: physicochemical
Description: The log P values were measured in accordance with EEC Directive 79/831 Annex V.A8 by HPLC (High Performance Liquid Chromatography) on reversed-phase columns (C 18) using the methods below:
[b] The LC-MS determination in the acid range was carried out at pH 2.7 using the mobile phases 0.1% aqueous formic acid and acetonitrile (contains 0.1% formic acid)
linear gradient from 10% acetonitrile to 95% acetonitrile.

physchem [3] = assay type: physicochemical; settings: pH 7.8
Description: The log P values were measured in accordance with EEC Directive 79/831 Annex V.A8 by HPLC (High Performance Liquid Chromatography) on reversed-phase columns (C 18) using the methods below: [c] The LC-MS determination in the neutral range was carried out at pH 7.8 using the mobile phases 0.001 molar aqueous ammonium bicarbonate solution and acetonitrile linear gradient from 10% acetonitrile to 95% acetonitrile.

[4] = assay type: physicochemical
Description: The log P values were measured in accordance with EEC Directive 79/831 Annex V.A8 by HPLC (High Performance Liquid Chromatography) on reversed-phase columns (C 18) using the methods below: […]

Phakopsora pachyrhizi = experiment: Phakopsora test (soya beans)/protective; assay type: in vivo; settings: active compound concentration of 250 ppm, protective, evaluation 1 day after the inoculation
physchem [5] = assay type: physicochemical; settings: pH 7
Fusarium graminearum = experiment: microbe, parasite or virus in culture; assay type: cell-based; settings: 168 h, read-out: activity in the inhibition of DON/AcDON
[6] = FB1 concentration in liquid medium after 6 days at 20° C., HPLC-MS/MS
[7] = OD620 at the beginning and after 6 days

| Compound | pI50 Fum (Fusarium proliferatum; [6]) | pI50 growth (Fusarium proliferatum; [7]) | log p ([2]; pH 2.7) | log p (physchem [3]) | other results |
| --- | --- | --- | --- | --- | --- |
| CCC1COC(=O)N1c1cccc(Nc2ncc(Cl)c(NC3CC3)n2)c1 (centres unmarked) [Example 31] | 6.3 | 5.7 |  |  | log p ([1]; pH 2.3): 1.86[a] |
| CCOC1CCC(=O)N1c1cccc(Nc2ncc(Cl)c(NC3CC3)n2)c1 (centres unmarked) [Example 106, 1-(3-{[5-Chloro-4-(cyclopropylamino)pyrimidin-2-yl]amino}phenyl)-5-ethoxypyrrolidin-2-one] |  |  |  |  | pest or weed control at 500 ppm (Sphaerotheca fuliginea): ≥ 70%; chromatographic logP ([1]; pH 2.3, log P (pH 2.3)): 1.65; chromatographic logP ([1]; pH 2.3, log p): 1.65 |
| CC1(C)CC(=O)N(c2cccc(Nc3ncc(C(F)(F)F)c(NC4CC4)n3)c2)C1=O [Example 62] | 6.2 | 5.7 |  |  | log p ([1]; pH 2.3): 2.63[a] |
| CC1CCC(=O)N1c1cccc(Nc2ncc(Br)c(NC3CC3)n2)c1 (centres unmarked) [Example 60] | 6.3 | 5.5 | 1.72[b] |  | log p ([1]; pH 2.3): 1.72[a]; |
| CCC1CC(C)C(=O)N1c1cccc(Nc2ncc(Cl)c(NC3CC3)n2)c1 (centres unmarked) [Example 206, 1-(3-{[5-Chloro-4-(cyclopropylamino)pyrimidin-2-yl]amino}phenyl)-5-ethyl-3-methylpyrrolidin-2-one] |  |  |  |  | chromatographic logP (physchem [3]): 3.15; pest or weed control at 500 ppm (Sphaerotheca fuliginea): ≥ 70%; chromatographic logP ([2]; pH 2.7): 2.19; chromatographic logP ([1]; pH 2.3, log P (pH 2.3)): 2.19 |
| O=C1CCC(=O)N1c1cccc(Nc2ncc(Cl)c(NC3CCC3)n2)c1 [Example 203] |  |  | 1.48[b]; | 2.32[c]; | log p [4]: 1.24[d] |
| 1-(3-{[4-(Cyclopropylamino)-5-(trifluoromethyl)pyrimidin-2-yl]amino}phenyl)pyrrolidin-2-one [Example 236] |  | 4.9 |  |  | log p ([2]; method [b], LC-MS, acid range pH 2.7): 1.49[b]; log P (pH 2.3) ([1]; pH 2.3): 1.49 |
| CC1CC(C)N(c2cccc(Nc3ncc(Br)c(NC4CC4)n3)c2)C1=O (centres unmarked) [Example 84] | 6.3 |  | 2.01[b] | 2.91[c]; |  |
| CCOC(=O)[C@@H]1CCC(=O)N1c1cccc(Nc2ncc(Cl)c(NC3CC3)n2)c1 [Example 190, Ethyl 1-(3-{[5-chloro-4-(cyclopropylamino)pyrimidin-2-yl]amino}phenyl)-5-oxo-L-prolinate] |  |  |  |  | chromatographic logP (physchem [3]): 2.53; pest or weed control at 500 ppm (Sphaerotheca fuliginea): ≥ 70%; chromatographic logP ([2]; pH 2.7): 1.69; chromatographic logP ([1]; pH 2.3, log P (pH 2.3)): 1.69 |
| CC1CCN(c2cccc(Nc3ncc(Br)c(NC4CC4)n3)c2)C1=O (centres unmarked) [Example 187] | 6.3 | 5.8 | 1.87[b] | 2.83[c]; |  |
| FC(F)(F)c1cnc(Nc2cccc(N3CCCC3=S)c2)nc1NC1CC1 [Example 214] | 5.1 | 5 | 2.59[b] | 2.86[c]; | efficacy (Phakopsora pachyrhizi): ≥ 80% |
| CC1COC(=O)N1c1cccc(Nc2ncc(Br)c(NC3CCC3)n2)c1 (centres unmarked) [Example 56] | 6.2 | 5.6 |  |  | log p ([1]; pH 2.3): 1.97[a] |
| CC(C)Nc1nc(Nc2cccc(N3C(=O)C(C)CC3C)c2)ncc1Cl (centres unmarked) [Example 141] | 5.3 | 5 | 1.88[b] | 3.15[c]; |  |
| CC1(C)CC(=O)N(c2cccc(Nc3ncc(Cl)c(NC4CC4)n3)c2)C1=O [Example 25] | 6.3 | 5.6 |  |  | log p ([1]; pH 2.3): 1.83[a] |
| CN(c1nc(Nc2ccc(F)c(N3CCCC3=O)c2)ncc1Cl)C1CC1 [Example 198] | 5.5 | 4.8 | 2.53[b] | 2.92[c]; |  |
| CC1COC(=O)N1c1cccc(Nc2ncc(C(F)(F)F)c(NC3CC3)n2)c1 (centres unmarked) [Example 19] | 6.2 |  | 2.4[b] |  |  |

| Compound | pI50 Fum (Fusarium proliferatum; [6]) | pI50 growth (Fusarium proliferatum; [7]) | log p ([2]; pH 2.7) | log p (physchem [3]) | other results |
| --- | --- | --- | --- | --- | --- |
| CCC1CC(C)C(=O)N1c1cccc(Nc2ncc(Br)c(NC3CCC3)n2)c1 (centres unmarked) [Example 211] |  |  | 2.63[b]; |  | log p [4]: 2.19[d] |
| CC1CCN(c2cccc(Nc3ncc(Br)c(NC4CCC4)n3)c2)C1=O (centres unmarked) [Example 27] | 6.2 | 5.6 | 2.09[b] |  | log p ([1]; pH 2.3): 2.24[a]; |
| CC1(C)CC(=O)N(c2cccc(Nc3ncc(Br)c(NC4CCC4)n3)c2)C1=O [Example 63] | 6.6 | 5.7 |  |  | log p ([1]; pH 2.3): 2.19[a] |
| CC(C)Nc1nc(Nc2cccc(N3CCOC3=O)c2)ncc1Cl [Example 138] | 5 | 4.9 | 1.56[b] |  |  |
| COCC(C)Nc1nc(Nc2cccc(N3C(=O)CCC3=O)c2)ncc1Cl (centres unmarked) [Example 202] |  |  | 1.26[b]; | 2.13[c]; | log p [4]: 1.02[d] |
| S=C1CCCN1c1cccc(Nc2ncc(Cl)c(NC3CC3)n2)c1 [Example 33, 1-(3-{[5-Chloro-4-(cyclopropylamino)pyrimidin-2-yl]amino}phenyl)pyrrolidine-2-thione] |  |  |  |  | chromatographic logP (physchem [3]): 2.54; chromatographic logP (physchem [5]): 2.54; pest or weed control at 500 ppm (Sphaerotheca fuliginea): ≥ 70%; chromatographic logP ([1]; pH 2.3, log p): 1.69 |
| C[C@H]1COC(=O)N1c1cccc(Nc2ncc(Cl)c(NC3CC3)n2)c1 [Example 92] | 6.6 | 5.7 | 1.54[b] | 2.42[c]; |  |
| O=CN(c1cccc(N2CCCC2=O)c1)c1ncc(Cl)c(NC2CC2)n1 [Example 217, N-[5-Chloro-4-(cyclopropylamino)pyrimidin-2-yl]-N-[3-(2-oxopyrrolidin-1-yl)phenyl]-formamide] |  |  |  |  | pest or weed control at 500 ppm (Sphaerotheca fuliginea): ≥ 70%; chromatographic logP ([2]; pH 2.7): 1.49; chromatographic logP ([1]; pH 2.3, log P (pH 2.3)): 1.22 |
| O=C1OCCN1c1cccc(Nc2ncc(Cl)c(NC3CCC3)n2)c1 [Example 59, 3-(3-{[5-Chloro-4-(cyclobutylamino)pyrimidin-2-yl]amino}phenyl)-1,3-oxazolidin-2-one] |  |  |  |  | inhibition at 50 µM (Fusarium graminearum): > 80%; pest or weed control at 500 ppm (Sphaerotheca fuliginea): ≥ 70%; chromatographic logP ([2]; pH 2.7): 1.64; chromatographic logP ([1]; pH 2.3, log P (pH 2.3)): 1.64; chromatographic logP ([1]; pH 2.3, log p): 1.64; IC50 (Fusarium proliferatum; FB1 concentration in liquid medium after 6 days at 20° C., HPLC-MS/MS, read-out: pI50 Fum (converted)): 631 nM; IC50 (Fusarium proliferatum; OD620 at the beginning and after 6 days, read-out: pI50 growth (converted)): 2510 nM |
| CCC1=C(C)CN(c2cccc(Nc3ncc(Cl)c(NC4CC4)n3)c2)C1=O [Example 224] | 6 | 5.3 |  |  | log p ([1]; pH 2.3): 2.2[a] |
| CC1COC(=O)N1c1cccc(Nc2ncc(Cl)c(NCC(F)(F)F)n2)c1 (centres unmarked) [Example 169] | 5.5 | 5.1 | 2.16[b] |  |  |
| CC(C)Nc1nc(Nc2cccc(N3CCOC3=O)c2)ncc1Br [Example 146] |  | 5 | 1.63[b] |  |  |
| COCC(=O)N(c1cccc(N2CCCC2=O)c1)c1ncc(Cl)c(NC2CC2)n1 [Example 231, N-[5-Chloro-4-(cyclopropylamino)pyrimidin-2-yl]-2-methoxy-N-[3-(2-oxopyrrolidin-1-yl)phenyl]acetamide] |  |  |  |  | chromatographic logP (physchem [3]): 1.82; pest or weed control at 500 ppm (Sphaerotheca fuliginea): ≥ 70%; chromatographic logP ([2]; pH 2.7): 1.87; chromatographic logP ([1]; pH 2.3, log P (pH 2.3)): 1.87 |
| O=C1CCC(=O)N1c1cc(Nc2ncc(C(F)(F)F)c(NC3CC3)n2)ccc1Cl [Example 119, 1-(2-Chloro-5-{[4-(cyclopropylamino)-5-(trifluoromethyl)pyrimidin-2-yl]amino}phenyl)pyrrolidine-2,5-dione] |  |  |  |  | pest or weed control at 500 ppm (Sphaerotheca fuliginea): ≥ 70%; chromatographic logP ([2]; pH 2.7): 2.49; chromatographic logP ([1]; pH 2.3, log P (pH 2.3)): 2.49 |
| O=C1CCC(=O)N1c1cccc(Nc2ncc(Cl)c(NC3CC3)n2)c1 [Example 195] | 6.2 |  |  | 1.98[c]; | log p [4]: 0.99[d] |
| CCC(C)Nc1nc(Nc2cccc(N3CCCC3=O)c2)ncc1Cl (centres unmarked) [Example 8] | 4.6 | 4 |  | 2.92[c] | log p ([1]; pH 2.3): 1.84[a]; |
